Measurements from patent US10336730B2, “Substituted glycine derived FXIA inhibitors” (BRISTOL-MYERS SQUIBB COMPANY, priority 2015, dated 2019).

Target: T1, purified human Factor XIa (Homo sapiens, UniProt P03951)
T1 construct: purchased Haematologic Technologies
Assay: Factor XIa enzyme inhibition assay (chromogenic substrate S-2366), Ki
Format: biochemical
Conditions: substrate S-2366, pH 7.4
Protocol: The effectiveness of compounds of the present invention as inhibitors of the coagulation Factors XIa, VIIa, IXa, Xa, XIIa, plasma kallikrein, thrombin, chemytrypsin or trypsin can be determined using a relevant purified serine protease, respectively, and an appropriate synthetic substrate. The rate of hydrolysis of the chromogenic or fluorogenic substrate by the relevant serine protease was measured both in the absence and presence of compounds of the present invention. […] A decrease in the rate of absorbance or fluorescence change in the presence of inhibitor is indicative of enzyme inhibition. Such methods are known to one skilled in the art. The results of this assay are expressed as the inhibitory constant, Ki.
Factor XIa determinations were made in 50 mM HEPES buffer at pH 7.4 containing 145 mM NaCl, 5 mM KCl, and 0.1% PEG 8000 (polyethylene glycol; JT Baker or Fisher Scientific). Determinations were made using purified human Factor XIa at a final concentration of […] (Haematologic Technologies) and the synthetic substrate S-2366 (pyroGlu-Pro-Arg-pNA; CHROMOGENIX® or AnaSpec) at a concentration of 0.0002-0.001 M.
Values of Ki were determined by allowing the protease to react with the substrate in the presence of the inhibitor. Reactions were allowed to go for periods of 20-180 minutes (depending on the protease) and the velocities (rate of absorbance or fluorescence change versus time) were measured. The following relationships were used to calculate Ki values: (Vmax*S)/(Km+S) (vo−vs)/vs=I/(Ki*(1+S/Km)) for a competitive inhibitor with one binding site; or vs/vo=A+(B−A)/(1+(IC50/(I)^n)); and Ki=IC50/(1+S/Km) for a competitive inhibitor where: […]

T1 sequence (P03951 388-625 limits assumed): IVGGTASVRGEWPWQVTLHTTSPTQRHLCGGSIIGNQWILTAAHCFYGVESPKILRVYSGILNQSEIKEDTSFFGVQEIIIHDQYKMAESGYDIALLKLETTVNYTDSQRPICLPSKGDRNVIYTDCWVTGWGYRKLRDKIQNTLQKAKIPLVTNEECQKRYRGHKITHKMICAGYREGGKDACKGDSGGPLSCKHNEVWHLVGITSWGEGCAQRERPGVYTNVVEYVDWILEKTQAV
T1 sequence (P03951 19-387 partner limits assumed): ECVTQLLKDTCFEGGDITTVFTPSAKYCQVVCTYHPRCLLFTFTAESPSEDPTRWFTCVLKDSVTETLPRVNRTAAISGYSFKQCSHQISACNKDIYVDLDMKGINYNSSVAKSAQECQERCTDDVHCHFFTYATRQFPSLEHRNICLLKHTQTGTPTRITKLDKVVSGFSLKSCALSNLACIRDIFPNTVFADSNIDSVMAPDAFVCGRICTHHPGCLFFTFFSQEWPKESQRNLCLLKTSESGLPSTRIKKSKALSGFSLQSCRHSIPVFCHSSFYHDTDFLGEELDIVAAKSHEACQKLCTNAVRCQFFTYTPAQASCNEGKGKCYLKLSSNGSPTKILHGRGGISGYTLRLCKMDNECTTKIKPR

Point of comparison: `O=C(Nc1ccc2[nH]cnc2c1)[C@H](Cc1ccccc1)n1cnc(-c2cc(Cl)ccc2-n2cc(Cl)nn2)cc1=O` [Example 46, (S)-N-(1H-benzo[d]imidazol-5-yl)-2-(4-(5-chloro-2-(4-chloro-1H-1,2,3-triazol-1-yl)phenyl)-6-oxopyrimidin-1(6H)-yl)-3-phenylpropanamide], Ki 0.0083 µM. Against it:
- CCOC(=O)c1ccc(NC(=O)[C@H](Cc2ccccc2)n2cnc(-c3cc(Cl)ccc3-n3cc(Cl)nn3)cc2=O)cc1 [Example 42, ethyl (S)-4-(2-(4-(5-chloro-2-(4-chloro-1H-1,2,3-triazol-1-yl)phenyl)-6-oxopyrimidin-1(6H)-yl)-3-phenylpropanamido)benzoate] — 24-fold higher, 0.196 µM
- N#Cc1ccc(NC(=O)[C@H](Cc2ccccc2)n2cnc(-c3cc(Cl)ccc3-n3cc(Cl)nn3)cc2=O)cn1 [Example 43, (S)-2-(4-(5-chloro-2-(4-chloro-1H-1,2,3-triazol-1-yl)phenyl)-6-oxopyrimidin-1(6H)-yl)-N-(6-cyanopyridin-3-yl)-3-phenylpropanamide] — 25-fold higher, 0.208 µM
- CCn1nc(C)cc1NC(=O)[C@H](Cc1ccccc1)n1cnc(-c2cc(Cl)ccc2-n2cc(Cl)nn2)cc1=O [Example 44, (S)-2-(4-(5-chloro-2-(4-chloro-1H-1,2,3-triazol-1-yl)phenyl)-6-oxopyrimidin-1(6H)-yl)-N-(1-ethyl-3-methyl-1H-pyrazol-5-yl)-3-phenylpropanamide] — 48-fold higher, 0.395 µM
- COC(=O)Cc1ccc(NC(=O)[C@H](Cc2ccccc2)n2cnc(-c3cc(Cl)ccc3-n3cc(Cl)nn3)cc2=O)cc1 [Example 45, methyl (S)-2-(4-(2-(4-(5-chloro-2-(4-chloro-1H-1,2,3-triazol-1-yl)phenyl)-6-oxopyrimidin-1(6H)-yl)-3-phenylpropanamido)phenyl)acetate] — 11-fold higher, 0.0882 µM
- O=C(Nc1ccc2[nH]ccc2n1)[C@H](Cc1ccccc1)n1cnc(-c2cc(Cl)ccc2-n2cc(Cl)nn2)cc1=O [Example 47, (S)-2-(4-(5-chloro-2-(4-chloro-1H-1,2,3-triazol-1-yl)phenyl)-6-oxopyrimidin-1(6H)-yl)-3-phenyl-N-(1H-pyrrolo[3,2-b]pyridin-5-yl)propanamide] — 19-fold higher, 0.154 µM
- O=C(NCc1nccs1)[C@H](Cc1ccccc1)n1cnc(-c2cc(Cl)ccc2-n2cc(Cl)nn2)cc1=O [Example 50, (S)-2-(4-(5-chloro-2-(4-chloro-1H-1,2,3-triazol-1-yl)phenyl)-6-oxopyrimidin-1(6H)-yl)-3-phenyl-N-(thiazol-2-ylmethyl)propanamide] — 790-fold higher, 6.59 µM
- Cc1cnc(CNC(=O)[C@H](Cc2ccccc2)n2cnc(-c3cc(Cl)ccc3-n3cc(Cl)nn3)cc2=O)cn1 [Example 51, (S)-2-(4-(5-chloro-2-(4-chloro-1H-1,2,3-triazol-1-yl)phenyl)-6-oxopyrimidin-1(6H)-yl)-N-((5-methylpyrazin-2-yl)methyl)-3-phenylpropanamide] — 180-fold higher, 1.48 µM
- O=C([C@H](Cc1ccccc1)n1cnc(-c2cc(Cl)ccc2-n2cc(Cl)nn2)cc1=O)N1CCC(c2ccc(Cl)cc2)CC1 [Example 52, (S)-6-(5-chloro-2-(4-chloro-1H-1,2,3-triazol-1-yl)phenyl)-3-(1-(4-(4-chlorophenyl)piperidin-1-yl)-1-oxo-3-phenylpropan-2-yl)pyrimidin-4(3H)-one] — 530-fold higher, 4.44 µM
- O=C1CN(C(=O)[C@H](Cc2ccccc2)n2cnc(-c3cc(Cl)ccc3-n3cc(Cl)nn3)cc2=O)CCN1 [Example 53, (S)-6-(5-chloro-2-(4-chloro-1H-1,2,3-triazol-1-yl)phenyl)-3-(1-oxo-1-(3-oxopiperazin-1-yl)-3-phenylpropan-2-yl)pyrimidin-4(3H)-one] — 920-fold higher, 7.62 µM
- CN1[C@@H]2CC[C@H]1C[C@@H](NC(=O)[C@H](Cc1ccccc1)n1cnc(-c3cc(Cl)ccc3-n3cc(Cl)nn3)cc1=O)C2 [Example 54, (S)-2-(4-(5-chloro-2-(4-chloro-1H-1,2,3-triazol-1-yl)phenyl)-6-oxopyrimidin-1(6H)-yl)-N-((1R,3r,5S)-8-methyl-8-azabicyclo[3.2.1]octan-3-yl)-3-phenylpropanamide] — 480-fold higher, 3.99 µM
- O=C1CCN(C(=O)[C@H](Cc2ccccc2)n2cnc(-c3cc(Cl)ccc3-n3cc(Cl)nn3)cc2=O)CCN1 [Example 55, (S)-1-(2-(4-(5-chloro-2-(4-chloro-1H-1,2,3-triazol-1-yl)phenyl)-6-oxopyrimidin-1(6H)-yl)-3-phenylpropanoyl)-1,4-diazepan-5-one] — 600-fold higher, 4.94 µM
- O=C([C@H](Cc1ccccc1)n1cnc(-c2cc(Cl)ccc2-n2cc(Cl)nn2)cc1=O)N1CCC(CO)CC1 [Example 56, (S)-6-(5-chloro-2-(4-chloro-1H-1,2,3-triazol-1-yl)phenyl)-3-(1-(4-(hydroxymethyl)piperidin-1-yl)-1-oxo-3-phenylpropan-2-yl)pyrimidin-4(3H)-one] — 890-fold higher, 7.37 µM
- O=C([C@H](Cc1ccccc1)n1cnc(-c2cc(Cl)ccc2-n2cc(Cl)nn2)cc1=O)N1CCN(c2ccncc2)CC1 [Example 57, (S)-6-(5-chloro-2-(4-chloro-1H-1,2,3-triazol-1-yl)phenyl)-3-(1-oxo-3-phenyl-1-(4-(pyridin-4-yl)piperazin-1-yl)propan-2-yl)pyrimidin-4(3H)-one] — 590-fold higher, 4.89 µM
- COCCN(C)C(=O)[C@H](Cc1ccccc1)n1cnc(-c2cc(Cl)ccc2-n2cc(Cl)nn2)cc1=O [Example 58, (S)-2-(4-(5-chloro-2-(4-chloro-1H-1,2,3-triazol-1-yl)phenyl)-6-oxopyrimidin-1(6H)-yl)-N-(2-methoxyethyl)-N-methyl-3-phenylpropanamide] — 950-fold higher, 7.86 µM
- NC(=O)CCNC(=O)[C@H](Cc1ccccc1)n1cnc(-c2cc(Cl)ccc2-n2cc(Cl)nn2)cc1=O [Example 59, (S)-N-(3-amino-3-oxopropyl)-2-(4-(5-chloro-2-(4-chloro-1H-1,2,3-triazol-1-yl)phenyl)-6-oxopyrimidin-1(6H)-yl)-3-phenylpropanamide] — 740-fold higher, 6.17 µM
- CC(=O)N1CCN(C(=O)[C@H](Cc2ccccc2)n2cnc(-c3cc(Cl)ccc3-n3cc(Cl)nn3)cc2=O)CC1 [Example 60, (S)-3-(1-(4-acetylpiperazin-1-yl)-1-oxo-3-phenylpropan-2-yl)-6-(5-chloro-2-(4-chloro-1H-1,2,3-triazol-1-yl)phenyl)pyrimidin-4(3H)-one] — 890-fold higher, 7.37 µM
- COC(=O)CCNC(=O)[C@H](Cc1ccccc1)n1cnc(-c2cc(Cl)ccc2-n2cc(Cl)nn2)cc1=O [Example 61, methyl (S)-3-(2-(4-(5-chloro-2-(4-chloro-1H-1,2,3-triazol-1-yl)phenyl)-6-oxopyrimidin-1(6H)-yl)-3-phenylpropanamido)propanoate] — 440-fold higher, 3.65 µM
- NC(=O)CNC(=O)[C@H](Cc1ccccc1)n1cnc(-c2cc(Cl)ccc2-n2cc(Cl)nn2)cc1=O [Example 62, (S)-N-(2-amino-2-oxoethyl)-2-(4-(5-chloro-2-(4-chloro-1H-1,2,3-triazol-1-yl)phenyl)-6-oxopyrimidin-1(6H)-yl)-3-phenylpropanamide] — 1100-fold higher, 8.98 µM
- CN(C)C1CCN(C(=O)[C@H](Cc2ccccc2)n2cnc(-c3cc(Cl)ccc3-n3cc(Cl)nn3)cc2=O)CC1 [Example 63, (S)-6-(5-chloro-2-(4-chloro-1H-1,2,3-triazol-1-yl)phenyl)-3-(1-(4-(dimethylamino)piperidin-1-yl)-1-oxo-3-phenylpropan-2-yl)pyrimidin-4(3H)-one] — 900-fold higher, 7.5 µM
- NS(=O)(=O)c1ccc(CNC(=O)[C@H](Cc2ccccc2)n2cnc(-c3cc(Cl)ccc3-n3cc(Cl)nn3)cc2=O)cc1 [Example 64, (S)-2-(4-(5-chloro-2-(4-chloro-1H-1,2,3-triazol-1-yl)phenyl)-6-oxopyrimidin-1(6H)-yl)-3-phenyl-N-(4-sulfamoylbenzyl)propanamide] — 150-fold higher, 1.27 µM
- CCOC(=O)c1cn2c(n1)CN(C(=O)[C@H](Cc1ccccc1)n1cnc(-c3cc(Cl)ccc3-n3cc(Cl)nn3)cc1=O)CC2 [Example 65, ethyl (S)-7-(2-(4-(5-chloro-2-(4-chloro-1H-1,2,3-triazol-1-yl)phenyl)-6-oxopyrimidin-1(6H)-yl)-3-phenylpropanoyl)-5,6,7,8-tetrahydroimidazo[1,2-a]pyrazine-2-carboxylate] — 600-fold higher, 4.94 µM
- CN1CCC2(CCCN(C(=O)[C@H](Cc3ccccc3)n3cnc(-c4cc(Cl)ccc4-n4cc(Cl)nn4)cc3=O)C2)C1=O (stereo partly drawn) [Example 66, 7-((S)-2-(4-(5-chloro-2-(4-chloro-1H-1,2,3-triazol-1-yl)phenyl)-6-oxopyrimidin-1(6H)-yl)-3-phenylpropanoyl)-2-methyl-2,7-diazaspiro[4.5]decan-1-one] — 1500-fold higher, 12.2 µM
- CC(C)c1nnc2n1CCN(C(=O)[C@H](Cc1ccccc1)n1cnc(-c3cc(Cl)ccc3-n3cc(Cl)nn3)cc1=O)C2 [Example 67, (S)-6-(5-chloro-2-(4-chloro-1H-1,2,3-triazol-1-yl)phenyl)-3-(1-(3-isopropyl-5,6-dihydro-[1,2,4]triazolo[4,3-a]pyrazin-7(8H)-yl)-1-oxo-3-phenylpropan-2-yl)pyrimidin-4(3H)-one] — 890-fold higher, 7.37 µM
